Here are results for 15 compounds from patent US20090221642A1, “MUSCARINIC RECEPTOR AGONISTS, COMPOSITIONS, METHODS OF TREATMENT THEREOF, AND PROCESSES FOR PREPARATION THEREOF-176” (AstraZeneca AB, priority 2008, published 2009).

Experiment [1] addresses T1, cloned human M2 receptor (human Muscarinic receptor subtype 2) (Homo sapiens, UniProt P08172).
T1 construct: purchased Perkin-Elmer RBHM2M; host or cells: Chinese hamster ovary cells (CHO) membranes
T1 sequence (P08172 1-466): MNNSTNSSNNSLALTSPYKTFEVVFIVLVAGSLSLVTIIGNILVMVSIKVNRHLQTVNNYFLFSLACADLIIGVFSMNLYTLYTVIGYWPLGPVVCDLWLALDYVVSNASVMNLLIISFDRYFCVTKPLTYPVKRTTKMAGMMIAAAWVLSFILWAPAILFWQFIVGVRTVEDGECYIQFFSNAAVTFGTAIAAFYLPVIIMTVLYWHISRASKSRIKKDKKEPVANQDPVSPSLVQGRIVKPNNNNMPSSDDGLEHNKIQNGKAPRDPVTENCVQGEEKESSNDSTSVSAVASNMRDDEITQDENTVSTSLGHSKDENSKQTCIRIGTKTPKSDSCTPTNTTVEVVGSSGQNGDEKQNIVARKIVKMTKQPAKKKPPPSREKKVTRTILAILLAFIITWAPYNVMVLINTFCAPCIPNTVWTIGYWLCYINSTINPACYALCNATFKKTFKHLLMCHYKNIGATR
Kind of experiment: hM2 receptor GTPγS binding. Type of experiment: biochemical. Conditions: CHO cell membranes expressing hM2; [35S]GTPγS binding; read-out: hM2 EC50. The protocol: hM2 Receptor GTPγS Binding
Membranes produced from Chinese hamster ovary cells (CHO) expressing the cloned human M2 receptor (human Muscarinic receptor subtype 2, gene bank access NM_000739), are obtained from Perkin-Elmer (RBHM2M). The membranes are thawed at 37° C., passed 3 times through a 23-gauge blunt-end needle, diluted in the GTPγS binding buffer (50 mM Hepes, 20 mM NaOH, 100 mM NaCl, 1 mM EDTA, 5 mM MgCl2, pH 7.4, 100 μM DTT). The EC50, IC50 and Emax of the compounds of the invention are evaluated from 10-point dose-response curves (three fold concentration range) done in 60 μl in 384-well non-specific binding surface plate (Corning). Ten microliters from the dose-response curves plate (5× concentration) are transferred to another 384 well plate containing 25 μl of the following: 5 μg of hM2 membranes, 500 μg of Flashblue beads (Perkin-Elmer) and GDP 25 μM. An additional 15 μl containing 3.3× (60,000 dpm) of GTPγ^35S (0.4 nM final) are added to the wells resulting in a total well volume of 50 μl. Basal and maximal stimulated [^35S]GTPγS binding are determined in absence and presence of 30 μM final of acetylcholine agonist. The membranes/beads mix are pre-incubated for 15 minutes at room temperature with 25 μM GDP prior to distribution in plates (12.5 μM final). The reversal of acetylcholine-induced stimulation (2 μM final) of [^35S]GTPγS binding is used to assay the antagonist properties (IC50) of the compounds. The plates are incubated for 60 minutes at room temperature then centrifuged at 400 rpm for 5 minutes. The radioactivity (cpm) is counted in a Trilux (Perkin-Elmer).
(§1) Values of EC50, IC50 and Emax are obtained using sigmoidal fits of a non-linear curve-fitting program (XLfit version 4.2.2 Excel add-in version 4.2.2 build 18 math 1Q version 2.1.2 build 18) of percent stimulated [^35S]GTPγS binding vs. log(molar ligand). All pEC50 and plC50 values are reported as arithmetic means ±standard error of mean of ‘n’ independent experiments.
On the technique in general: Binding of GTPγS marks nucleotide exchange on a G protein.

For experiment [2], the target named is T2, cloned human M4 receptor (human Muscarinic receptor subtype 4) (Homo sapiens, UniProt P08173).
T2 construct: purchased Perkin-Elmer RBHM4M; host or cells: Chinese hamster ovary cells (CHO) membranes
T2 sequence (P08173 1-479): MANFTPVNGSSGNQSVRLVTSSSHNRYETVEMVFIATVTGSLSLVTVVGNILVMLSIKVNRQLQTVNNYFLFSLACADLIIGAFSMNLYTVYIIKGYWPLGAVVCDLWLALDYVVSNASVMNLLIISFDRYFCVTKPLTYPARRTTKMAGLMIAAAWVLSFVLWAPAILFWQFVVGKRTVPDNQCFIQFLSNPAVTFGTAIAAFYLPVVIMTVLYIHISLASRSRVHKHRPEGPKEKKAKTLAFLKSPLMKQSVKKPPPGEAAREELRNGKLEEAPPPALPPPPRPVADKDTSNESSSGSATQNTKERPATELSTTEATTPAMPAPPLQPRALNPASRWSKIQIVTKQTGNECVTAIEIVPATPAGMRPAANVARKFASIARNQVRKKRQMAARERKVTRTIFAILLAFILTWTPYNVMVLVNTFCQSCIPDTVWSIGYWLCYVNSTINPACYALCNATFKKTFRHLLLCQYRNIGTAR
Kind of experiment: hM4 receptor GTPγS binding. The class given is biochemical. Conditions: CHO cell membranes expressing hM4; [35S]GTPγS binding; read-out: hM4 EC50. The protocol:
hM4 Receptor GTPγS Binding
Membranes produced from Chinese hamster ovary cells (CHO) expressing the cloned human M4 receptor (human Muscarinic receptor subtype 4, gene bank access NM_000741), are obtained from Perkin-Elmer (RBHM4M). The membranes are thawed at 37° C., passed 3 times through a 23-gauge blunt-end needle, diluted in the GTPγS binding buffer (50 mM Hepes, 20 mM NaOH, 100 mM NaCl, 1 mM EDTA, 5 mM MgCl2, pH 7.4, 100 μM DTT). The EC50, IC50 and Emax of the compounds of the invention are evaluated from 10-point dose-response curves (three fold concentration range) done in 60 μl in 384-well non-specific binding surface plate (Corning). Ten microliters from the dose-response curves plate (5× concentration) are transferred to another 384 well plate containing 25 μl of the following: 10 μg of hM4 membranes, 500 μg of Flashblue beads (Perkin-Elmer) and GDP 40 μM. An additional 15 μl containing 3.3× (60,000 dpm) of GTPγ^35S (0.4 nM final) are added to the wells resulting in a total well volume of 50 μl. Basal and maximal stimulated [^35S]GTPγS binding are determined in absence and presence of 30 μM final of acetylcholine agonist. The membranes/beads mix are pre-incubated for 15 minutes at room temperature with 40 μM GDP prior to distribution in plates (20 μM final). The reversal of acetylcholine-induced stimulation (10 μM final) of [^35S]GTPγS binding is used to assay the antagonist properties (IC50) of the compounds. The plates are incubated for 60 minutes at room temperature then centrifuged at 400 rpm for 5 minutes. The radioactivity (cpm) is counted in a Trilux (Perkin-Elmer).
as §1

As usually defined, the EC50 is the concentration at which the effect is half-maximal. As to `Cc1ccc2[nH]c(=O)n(C3CCN(C4(C)CCN(C(=O)OCCF)C4)CC3)c2c1` (single isomer, unassigned) [Example 28, 2-fluoroethyl 3-methyl-3-(4-(6-methyl-2-oxo-2,3-dihydro-1H-benzo[d]imidazol-1-yl)piperidin-1-yl)pyrrolidine-1-carboxylate], the figures for the EC50 in experiment [1] and in experiment [2] were 2.4 µM and 8.39 µM, respectively.
Regarding `CC1(N2CCC(n3c(=O)[nH]c4ccccc43)CC2)CCN(C(=O)OCCF)C1` (single isomer, unassigned) [Example 31, 2-fluoroethyl 3-methyl-3-(4-(2-oxo-2,3-dihydro-1H-benzo[d]imidazol-1-yl)piperidin-1-yl)pyrrolidine-1-carboxylate], the EC50 in experiment [1] was found to be 0.997 µM; in experiment [2], 1.19 µM.
As for `CC1(N2CCC(n3c(=O)[nH]c4ccccc43)CC2)CCN(C(=O)OCCF)C1` (single isomer, unassigned) [Example 32, 2-fluoroethyl 3-methyl-3-(4-(2-oxo-2,3-dihydro-1H-benzo[d]imidazol-1-yl)piperidin-1-yl)pyrrolidine-1-carboxylate], the results for the EC50 in experiment [1] and in experiment [2] were 5.84 µM and 33.7 µM, respectively.
As for `CC#CCOC(=O)N1CCC(C)(N2CCC(n3c(=O)[nH]c4ccccc43)CC2)C1` (single isomer, unassigned) [Example 33, but-2-ynyl 3-methyl-3-(4-(2-oxo-2,3-dihydro-1H-benzo[d]imidazol-1-yl)piperidin-1-yl)pyrrolidine-1-carboxylate], the EC50 in experiment [1] is 0.104 µM; in experiment [2], 0.316 µM.
For `CC#CCOC(=O)N1CCC(C)(N2CCC(n3c(=O)[nH]c4ccccc43)CC2)C1` (single isomer, unassigned) [Example 34, but-2-ynyl 3-methyl-3-(4-(2-oxo-2,3-dihydro-1H-benzo[d]imidazol-1-yl)piperidin-1-yl)pyrrolidine-1-carboxylate], the EC50 was found to be 0.897 µM in experiment [1] and 1.67 µM in experiment [2].
Take `C#CCOC(=O)N1CCC(C)(N2CCC(n3c(=O)[nH]c4cc(F)ccc43)CC2)C1` (single isomer, unassigned) [Example 36, prop-2-ynyl 3-(4-(5-fluoro-2-oxo-2,3-dihydro-1H-benzo[d]imidazol-1-yl)piperidin-1-yl)-3-methylpyrrolidine-1-carboxylate]: the figures for the EC50 in experiment [1] and in experiment [2] were 1.56 µM and 6.83 µM, respectively.
The matching figures for `Cc1ccc2[nH]c(=O)n(C3CCN(C4(C)CCN(C(=O)OC(C)C)C4)CC3)c2c1` (single isomer, unassigned) [Example 39, isopropyl 3-methyl-3-(4-(6-methyl-2-oxo-2,3-dihydro-1H-benzo[d]imidazol-1-yl)piperidin-1-yl)pyrrolidine-1-carboxylate]: above 12.8 µM and above 90 µM.
In the case of `Cc1ccc2[nH]c(=O)n(C3CCN(C4(C)CCN(C(=O)OC(C)C)C4)CC3)c2c1` (single isomer, unassigned) [Example 40, isopropyl 3-methyl-3-(4-(6-methyl-2-oxo-2,3-dihydro-1H-benzo[d]imidazol-1-yl)piperidin-1-yl)pyrrolidine-1-carboxylate], the figures for the EC50 in experiment [1] and in experiment [2] were 2.81 µM and above 22.3 µM, respectively.
On the same counts, the results for `C#CCOC(=O)N1CCC(C)(N2CCC(n3c(=O)[nH]c4ccc(C)cc43)CC2)C1` (single isomer, unassigned) [Example 41, prop-2-ynyl 3-methyl-3-(4-(6-methyl-2-oxo-2,3-dihydro-1H-benzo[d]imidazol-1-yl)piperidin-1-yl)pyrrolidine-1-carboxylate] are 2.21 µM and 8.8 µM.
With `C#CCOC(=O)N1CCC(C)(N2CCC(n3c(=O)[nH]c4ccc(C)cc43)CC2)C1` (single isomer, unassigned) [Example 43, prop-2-ynyl 3-methyl-3-(4-(6-methyl-2-oxo-2,3-dihydro-1H-benzo[d]imidazol-1-yl)piperidin-1-yl)pyrrolidine-1-carboxylate], the values for the EC50 in experiment [1] and in experiment [2] were 0.109 µM and 0.46 µM, respectively.
The matching figures for `C#CCOC(=O)N1CCC(C)(N2CCC(n3c(=O)[nH]c4cc(C)ccc43)CC2)C1` (single isomer, unassigned) [Example 44, prop-2-ynyl 3-methyl-3-(4-(5-methyl-2-oxo-2,3-dihydro-1H-benzo[d]imidazol-1-yl)piperidin-1-yl)pyrrolidine-1-carboxylate]: 0.026 µM and 0.107 µM.
With `COC(=O)N1CCC(C)(N2CCC(n3c(=O)[nH]c4ccc(C)cc43)CC2)C1` (single isomer, unassigned) [Example 45, methyl 3-methyl-3-(4-(6-methyl-2-oxo-2,3-dihydro-1H-benzo[d]imidazol-1-yl)piperidin-1-yl)pyrrolidine-1-carboxylate], the values for the EC50 in experiment [1] and in experiment [2] were 1.64 µM and 11.2 µM, respectively.
On the same counts, the results for `COC(=O)N1CCC(C)(N2CCC(n3c(=O)[nH]c4ccc(C)cc43)CC2)C1` (single isomer, unassigned) [Example 47, methyl 3-methyl-3-(4-(6-methyl-2-oxo-2,3-dihydro-1H-benzo[d]imidazol-1-yl)piperidin-1-yl)pyrrolidine-1-carboxylate] are 0.127 µM and 0.907 µM.
The matching figures for `COC(=O)N1CCC(C)(N2CCC(n3c(=O)[nH]c4cc(C)ccc43)CC2)C1` (single isomer, unassigned) [Example 48, methyl 3-methyl-3-(4-(5-methyl-2-oxo-2,3-dihydro-1H-benzo[d]imidazol-1-yl)piperidin-1-yl)pyrrolidine-1-carboxylate]: 0.571 µM and 3.48 µM.
Take `CCOC(=O)N1CCC(C)(N2CCC(n3c(=O)[nH]c4ccc(F)cc43)CC2)C1` (single isomer, unassigned) [Example 49, ethyl 3-(4-(6-fluoro-2-oxo-2,3-dihydro-1H-benzo[d]imidazol-1-yl)piperidin-1-yl)-3-methylpyrrolidine-1-carboxylate]: the EC50 in experiment [1] was found to be 4.55 µM; in experiment [2], 9.48 µM.
